{"source": "patent EP1913949A1", "about": "“Modulation of substrate preference by selective translocation of the major cardiac glucose transporter Glut4” (priority 2006, dated 2008)", "key": {"[1]": {"system": "heart-derived giant vesicles", "type": "biochemical, rat"}, "Akt/PKB": {"system": "Akt/PKB", "type": "cell-based, rat", "details": "for effect on Akt/PKB phosphorylation: 20 min"}, "cardiac myocytes [2]": {"system": "cardiac myocytes"}, "FABPpm": {"system": "FABPpm", "type": "cell-based, rat"}, "CD36": {"system": "CD36", "type": "cell-based, rat"}, "p38 MAPK [3]": {"system": "p38 MAPK"}, "cardiac myocytes [4]": {"system": "cardiac myocytes", "details": "for effect on LCFA uptake: in the absence or in the presence of insulin or arsenite, SB202190 (10 µM), PD98059 (10 µM), rapamycin (100 nM)"}, "[5]": {"system": "heart-derived giant vesicles", "experiment": "glucose uptake by giant vesicles (intrinsic transporter activity)", "type": "biochemical, rat", "details": "for glucose uptake into giant vesicles inhibited: inhibitor 10 µM"}, "AMPK [6]": {"system": "AMPK", "details": "20 min"}, "ACC [7]": {"system": "ACC"}, "cardiac myocytes [8]": {"system": "cardiac myocytes", "experiment": "tissue or blood", "details": "Rattus norvegicus"}, "ACC [9]": {"system": "ACC", "experiment": "cells", "details": "Rattus norvegicus, 20 min, read-out: increase in phosphorylation of ACC"}, "AMPK [10]": {"system": "AMPK", "experiment": "cells", "details": "Rattus norvegicus, 20 min, read-out: increase in phosphorylation of AMPK"}, "p38 MAPK [11]": {"system": "p38 MAPK", "experiment": "cells", "details": "Rattus norvegicus, 20 min, read-out: increase in p38 MAPK phosphorylation"}, "[12]": {"details": "PD98059 (10 µM), rapamycin (100 nM), wortmannin (200 nM), no stimulus"}, "[13]": {"details": "SB202190, PD98059 10 µM, rapamycin 20 nM, wortmannin 200 nM, stimulus 100 nM insulin"}, "[14]": {"details": "SB202190, PD98059 10 µM, rapamycin 20 nM, wortmannin 200 nM, stimulus 50 µM phenylephrine"}, "[15]": {"details": "SB202190, PD98059 10 µM, rapamycin 20 nM, wortmannin 200 nM, stimulus 100 µM arsenite"}, "[16]": {"details": "SB202190, SB203580, PD98059 10 µM, rapamycin 20 nM, stimulus 100 µM arsenite"}, "[17]": {"details": "SB202190, PD98059 10 µM, rapamycin 20 nM, wortmannin 200 nM, stimulus 5 µM oligomycin"}, "[18]": {"details": "read-out: basal glucose uptake inhibited"}, "[19]": {"details": "read-out: glucose uptake inhibited in cardiac myocytes"}, "[20]": {"details": "read-out: glucose uptake inhibited in the presence of arsenite"}, "[21]": {"details": "read-out: glucose uptake inhibited in the presence of insulin"}, "[22]": {"details": "10 µM SB202190 added 20 min prior to 100 µM arsenite"}}, "note": "Like-named read-outs stand apart in the source and are kept apart here."}
{"compound": "sodium arsenite", "values": [{"measurement": "content of GLUT4 in the LDM fraction decreased", "setting": "GLUT4; 20 min", "result": 44, "unit": "%"}, {"measurement": "content of GLUT4 in the PM fraction increased", "setting": "GLUT4; 20 min, 100 µM", "result": 1.7, "unit": "fold"}, {"measurement": "effect on LCFA uptake into giant vesicles", "setting": "[1]", "result": "did not influence"}, {"measurement": "effect on Akt/PKB phosphorylation", "setting": "Akt/PKB", "result": "did not stimulate"}, {"measurement": "deoxyglucose uptake", "setting": "cardiac myocytes [2]", "result": "without a further increase"}, {"measurement": "effect of arsenite on glucose uptake in combination with oligomycin", "setting": "cardiac myocytes [2]", "result": "retained its stimulatory action"}, {"measurement": "effect of arsenite on glucose uptake in insulin-stimulated cardiac myocytes", "setting": "cardiac myocytes [2]", "result": "ineffective"}, {"measurement": "deoxyglucose uptake stimulated", "setting": "cardiac myocytes [2]; cardiac myocytes, 20 min, 100 µM", "result": 5.1, "unit": "fold"}, {"measurement": "increase in p42/44 ERK phosphorylation", "setting": "p42/44 ERK; 20 min, 100 µM", "result": "2.3 ± 0.5", "unit": "fold"}, {"measurement": "increase in p70 S6K phosphorylation", "setting": "p70 S6K; 20 min, 100 µM", "result": "3.3 ± 0.7", "unit": "fold"}, {"measurement": "distribution of FABPpm between the LDM and the PM fraction", "setting": "FABPpm; 20 min", "result": "did not significantly influence"}, {"measurement": "contents of CD36 in the LDM- and PM fractions", "setting": "CD36; 20 min", "result": "did not significantly influence"}, {"measurement": "increase in p38 MAPK phosphorylation", "setting": "p38 MAPK [3]; 20 min", "result": "7.8 ± 1.8", "unit": "fold"}, {"measurement": "LCFA uptake", "setting": "cardiac myocytes [4]", "result": "did not increase"}, {"measurement": "effect of arsenite on LCFA uptake in combination with insulin or oligomycin", "setting": "cardiac myocytes [4]", "result": "did not significantly alter"}, {"measurement": "effect on glucose uptake into giant vesicles", "setting": "[5]", "result": "did not influence"}, {"measurement": "effect on phosphorylation of AMPK", "setting": "AMPK [6]", "result": "remained unaltered"}, {"measurement": "effect on phosphorylation of ACC", "setting": "ACC [7]; 20 min", "result": "remained unaltered"}]}
{"compound": "CO[C@H]1C[C@@H]2CC[C@@H](C)[C@@](O)(O2)C(=O)C(=O)N2CCCC[C@H]2C(=O)O[C@H]([C@H](C)C[C@@H]2CC[C@@H](O)[C@H](OC)C2)CC(=O)[C@H](C)/C=C(\\C)[C@@H](O)[C@@H](OC)C(=O)[C@H](C)C[C@H](C)/C=C/C=C/C=C/1C", "note": "[rapamycin]", "values": [{"measurement": "effect on basal glucose uptake", "setting": "cardiac myocytes [2]; [12]", "result": "no effect"}]}
{"compound": "COc1cccc(-c2cc(=O)c3ccccc3o2)c1N", "note": "[PD98059]", "values": [{"measurement": "inhibition of insulin-induced Akt/PKB phosphorylation", "setting": "Akt/PKB; [13]", "result": "did not inhibit"}, {"measurement": "effect on arsenite-stimulated glucose uptake", "setting": "cardiac myocytes [2]; PD98059 (10 µM), rapamycin (100 nM), wortmannin (200 nM), 100 µM arsenite", "result": "neither PD98059 nor rapamycin affected glucose uptake"}, {"measurement": "effect on insulin-stimulated glucose uptake", "setting": "cardiac myocytes [2]; PD98059 (10 µM), rapamycin (100 nM), wortmannin (200 nM), insulin", "result": "neither PD98059 nor rapamycin affected glucose uptake"}, {"measurement": "effect on basal glucose uptake", "setting": "cardiac myocytes [2]; [12]", "result": "no effect"}, {"measurement": "inhibition of phenylephrine-induced p42/44 ERK phosphorylation", "setting": "p42/44 ERK; [14]", "result": "completely inhibited"}, {"measurement": "inhibition of arsenite-induced p70 S6K phosphorylation", "setting": "p70 S6K; [15]", "result": "did not inhibit"}, {"measurement": "inhibition of arsenite-stimulated p38 MAPK phosphorylation", "setting": "p38 MAPK [3]; [16]", "result": "did not inhibit"}, {"measurement": "effect on LCFA uptake", "setting": "cardiac myocytes [4]", "result": "neither SB202190, nor PD98059 or rapamycin were able to influence"}, {"measurement": "effect on glucose uptake into giant vesicles", "setting": "[5]; same concentrations as in cardiac myocyte studies, added 20 min prior", "result": "did not alter"}, {"measurement": "inhibition of oligomycin-induced ACC phosphorylation", "setting": "ACC [7]; [17]", "result": "did not inhibit"}]}
{"compound": "C[S+]([O-])c1ccc(-c2nc(-c3ccncc3)c(-c3ccc(F)cc3)[nH]2)cc1", "note": "(stereo not drawn) [SB203580]", "values": [{"measurement": "inhibition of arsenite-stimulated p38 MAPK phosphorylation", "setting": "p38 MAPK [3]", "result": "similarly potent in blocking"}, {"measurement": "glucose uptake into giant vesicles inhibited", "setting": "[5]; added 20 min prior", "result": -46, "unit": "%"}, {"measurement": "inhibition at 10 µM", "setting": "cardiac myocytes [8]; [18]", "result": -56, "unit": "%"}, {"measurement": "inhibition at 10 µM", "setting": "cardiac myocytes [8]; [19]", "result": -56, "unit": "%"}, {"measurement": "inhibition at 10 µM", "setting": "cardiac myocytes [8]; [20]", "result": -57, "unit": "%"}, {"measurement": "inhibition at 10 µM", "setting": "cardiac myocytes [8]; [21]", "result": -46, "unit": "%"}]}
{"compound": "CC[C@H]1/C=C/C=C/C[C@@H](C)[C@H](O)[C@@](C)(O)C(=O)[C@@H](C)[C@H](O)[C@@H](C)C(=O)[C@@H](C)[C@H](O)[C@@H](C)/C=C/C(=O)O[C@@H]2[C@H](C)[C@H](CC1)O[C@]1(CC[C@H](C)[C@H](C[C@@H](C)O)O1)[C@H]2C", "note": "[oligomycin]", "values": [{"measurement": "fold induction at 5 µM", "setting": "ACC [9]", "result": "> 10"}, {"measurement": "effect on Akt/PKB phosphorylation", "setting": "Akt/PKB; 5 µM oligomycin or 100 µM arsenite", "result": "did not increase"}, {"measurement": "effect on p42/44 ERK phosphorylation", "setting": "p42/44 ERK; 20 min, 5 µM oligomycin", "result": "did not increase"}, {"measurement": "effect on p70 S6K phosphorylation", "setting": "p70 S6K; oligomycin", "result": "did not enhance"}, {"measurement": "fold induction at 5 µM", "setting": "AMPK [10]", "result": "> 10"}, {"measurement": "fold induction at 5 µM", "setting": "p38 MAPK [11]", "result": "5.7 ± 1.5"}, {"measurement": "fold induction at 5 µM", "setting": "cardiac myocytes [8]; read-out: glucose uptake increased", "result": 2.9}]}
{"compound": "COC[C@H]1OC(=O)c2coc3c2[C@@]1(C)C1=C(C3=O)[C@@H]2CCC(=O)[C@@]2(C)C[C@H]1OC(C)=O", "note": "[wortmannin]", "values": [{"measurement": "inhibition of insulin-induced Akt/PKB phosphorylation", "setting": "Akt/PKB", "result": "completely blocked"}, {"measurement": "effect on arsenite-stimulated glucose uptake", "setting": "cardiac myocytes [2]", "result": "completely failed to inhibit"}, {"measurement": "effect on basal glucose uptake", "setting": "cardiac myocytes [2]", "result": "did not inhibit"}, {"measurement": "effect on insulin-stimulated glucose uptake", "setting": "cardiac myocytes [2]", "result": "largely blocked"}, {"measurement": "inhibition of phenylephrine-induced p42/44 ERK phosphorylation", "setting": "p42/44 ERK", "result": "unaltered"}, {"measurement": "inhibition of arsenite-induced p70 S6K phosphorylation", "setting": "p70 S6K", "result": "completely blocked"}, {"measurement": "effect on basal LCFA uptake", "setting": "cardiac myocytes [4]", "result": "no effect"}, {"measurement": "effect on insulin-induced LCFA uptake", "setting": "cardiac myocytes [4]", "result": "completely blocked"}, {"measurement": "effect on glucose uptake into giant vesicles", "setting": "[5]", "result": "did not alter"}, {"measurement": "inhibition of oligomycin-induced ACC phosphorylation", "setting": "ACC [7]", "result": "unaltered"}]}
{"compound": "Oc1ccc(-c2nc(-c3ccncc3)c(-c3ccc(F)cc3)[nH]2)cc1", "note": "[SB202190]", "values": [{"measurement": "effect on arsenite-induced GLUT4 translocation", "setting": "GLUT4; [22]", "result": "did not affect"}, {"measurement": "inhibition of insulin-induced Akt/PKB phosphorylation", "setting": "Akt/PKB; [13]", "result": "did not affect"}, {"measurement": "inhibition of phenylephrine-induced p42/44 ERK phosphorylation", "setting": "p42/44 ERK; [14]", "result": "did not affect"}, {"measurement": "inhibition of arsenite-induced p70 S6K phosphorylation", "setting": "p70 S6K; [15]", "result": "did not affect"}, {"measurement": "effect on subcellular distribution of FABPpm", "setting": "FABPpm; [22]", "result": "did not influence"}, {"measurement": "effect on subcellular distribution of CD36", "setting": "CD36; [22]", "result": "did not influence"}, {"measurement": "inhibition of arsenite-stimulated p38 MAPK phosphorylation", "setting": "p38 MAPK [3]; [16]", "result": "largely inhibited"}, {"measurement": "effect on LCFA uptake", "setting": "cardiac myocytes [4]", "result": "neither SB202190, nor PD98059 or rapamycin were able to influence"}, {"measurement": "glucose uptake into giant vesicles inhibited", "setting": "[5]; added 20 min prior", "result": -27, "unit": "%"}, {"measurement": "inhibition of oligomycin-induced ACC phosphorylation", "setting": "ACC [7]; [17]", "result": "did not affect"}, {"measurement": "inhibition at 10 µM", "setting": "cardiac myocytes [8]; [18]", "result": -45, "unit": "%"}, {"measurement": "inhibition at 10 µM", "setting": "cardiac myocytes [8]; [19]", "result": -33, "unit": "%"}, {"measurement": "inhibition at 10 µM", "setting": "cardiac myocytes [8]; [20]", "result": -42, "unit": "%"}, {"measurement": "inhibition at 10 µM", "setting": "cardiac myocytes [8]; [21]", "result": -33, "unit": "%"}]}
